In brackets after ≈: the same amount, converted by molar mass. Where two headings read alike, the source gives them in different places.
Experiments:
[1] = test system: M. abscessus 103; assay: MIC/MBC by microbroth dilution (MH or 7H9 broth); format: cell-based, M. abscessus subsp. bolletii; details: Mycobacteroides abscessus, 103; for MBC: 7H9 broth, read-out: MBC99 M. abscessus subsp. bolletii 103
[2] = test system: M. abscessus 1513; assay: MIC/MBC by microbroth dilution (MH or 7H9 broth); format: cell-based, M. abscessus subsp. abscessus; details: Mycobacteroides abscessus, 1513; for MBC: 7H9 broth, read-out: MBC99 M. abscessus subsp. abscessus 1513
[3] = test system: M. abscessus 103; assay: Acute SCID mouse infection efficacy model; details: SCID mice i.v. infected with M. abscessus 103; compounds 300 mg/kg PO in 20% cyclodextrin, AMI 150 mg/kg SQ, once daily 8 days
[4] = test system: M. abscessus ATCC 19977; assay: MIC, resazurin microtiter assay; format: cell-based; details: Mueller Hinton II; for MIC: Mycobacteroides abscessus, ATCC19977, read-out: MIC M. abscessus ATCC 19977
[5] = test system: M. abscessus DCI #21; assay: MIC, resazurin microtiter assay; format: cell-based; details: for MIC: Mycobacteroides abscessus, read-out: MIC M. abscessus DCI #21; for Selectivity Index (TD50/MIC) M. abscessus DCI #21: TD50 in THP-1 cells
[6] = test system: M. massiliense CIP 108297; assay: MIC, resazurin microtiter assay; format: cell-based; details: for MIC: Mycobacteroides abscessus, CIP108297, Mueller Hinton II, read-out: MIC M. massiliense CIP 108297
[7] = test system: M. massiliense CRM 0019; assay: MIC, resazurin microtiter assay; format: cell-based; details: for MIC: Mycobacteroides abscessus, CRM0019, Mueller Hinton II, read-out: MIC M. massiliense CRM 0019; for Selectivity Index (TD50/MIC) M. Massiliense CRM0019: TD50 in THP-1 cells
[8] = test system: M. bolletii ATCC 14472; assay: MIC, resazurin microtiter assay; format: cell-based; details: for MIC: Mycobacteroides abscessus, ATCC14472, Mueller Hinton II, read-out: MIC M. bolletii ATCC 14472; for Selectivity Index (TD50/MIC) M. bolletii: TD50 in THP-1 cells
[9] = test system: M. chelonae ATCC 35752; assay: MIC, resazurin microtiter assay; format: cell-based; details: for MIC: Mycobacteroides chelonae, ATCC35752, Mueller Hinton II, read-out: MIC M. chelonae ATCC 35752; for Selectivity index (TD50/MIC): TD50 in THP-1 cells
[10] = test system: M. tuberculosis H37Rv mc^26206; assay: microbe, parasite or virus in culture; format: cell-based; details: for Selectivity Index (TD50/MIC) M. tb H37Rv: TD50 in THP-1 cells; for MIC: Mycobacterium tuberculosis, H37RV, read-out: MIC M. tb H37 Rv (mc2-6206)
[11] = test system: M. smegmatis mc^2155; assay: MIC, resazurin microtiter assay; format: cell-based; details: for MIC: Mycolicibacterium smegmatis, MC^2155, 7H9-ADC-0.05% Tween 80, read-out: MIC M. smeg. mc^2155
[12] = test system: M. avium 104; assay: MIC, resazurin microtiter assay; format: cell-based; details: Mueller Hinton II; for MIC: Mycobacterium avium, 104, read-out: MIC M. avium 104
[13] = test system: M. intracellulare 1956; assay: MIC, resazurin microtiter assay; format: cell-based; details: Mueller Hinton II; for MIC: read-out: MIC M. avium Intracellulare 1956
[14] = test system: M. xenopi WT; assay: MIC, resazurin microtiter assay; format: cell-based; details: Mueller Hinton II; for MIC: Mycobacterium xenopi, read-out: MIC M. xenopi WT
[15] = test system: P. aeruginosa PAO-1; assay: MIC, resazurin microtiter assay; format: cell-based, Pseudomonas aeruginosa; details: Mueller Hinton II; for MIC: Pseudomonas aeruginosa, PAO1, read-out: MIC P. aeruginosa PAO-1
[16] = test system: S. aureus ATCC25923; assay: MIC, resazurin microtiter assay; format: cell-based; details: Staphylococcus aureus, ATCC25923; Mueller Hinton II; read-out: MIC S. aureus ATCC25923
[17] = test system: THP-1 cells; assay: Cytotoxicity assay, THP-1 cell viability (CellTiter-Glo); format: cell-based, human; details: 3 days
Procedure: The cytotoxicity of compounds was determined by measuring THP-1 cell viability after 3 days in the presence of test compounds. Compounds were prepared as 10-point serial dilutions in DMSO. The highest concentration of compound tested was 50 μM where compounds were soluble in DMSO at 10 mM. THP-1 cells were cultured in complete RPMI and differentiated into macrophage-like cells using 80 nM PMA overnight at 37° C., 5% CO2. Cells were inoculated into assay plates and cultured for 24 h before compound dilutions were added to a final DMSO concentration of 0.5%. Each run included staurosporine as a control. Assay plates were incubated for 3 days at 37° C., 5% CO2, growth was measured using the CellTiter-Glo® Luminescent Cell Viability Assay (Promega) which uses ATP as an indicator of cell viability. Relative luminescent units (RLU) were measured using a Biotek Synergy 4 plate reader. The dose response curve was fitted using the Levenberg-Marquardt algorithm.

[18] = test system: M. massiliense strain 1513; assay: Metabolic labeling and mycolic acid analysis; details: 4x and 10x MIC, 16 hr, [1,2-14C]acetate labeling, TLC
Procedure: Cultures of M. massiliense 1513 grown to mid log-phase in Mueller-Hinton II broth were incubated with different concentrations of inhibitors for 16 hr at 37° C. with shaking. 0.5 μCi/mL [1,2-^14C]acetic acid (specific activity, 52 Ci/mol, PerkinElmer Inc.) was added at the same time as the inhibitors. Total lipids and cell wall-bound mycolic acid methyl esters were prepared from treated and untreated cells and analyzed by TLC as described in Grzegorzewicz et al, Nature Chemical Biology, 2012, 8:334+341.

[19] = test system: mycobacteria; assay: organism not typed; format: cell-based; details: lowest concentration reducing CFU by 90% relative to the inoculum; strain not stated; read-out: MBC90
[20] = read-out: MIC M. abscessus 103, 7H9 Broth
[21] = read-out: MIC M. abscessus 103, MH Broth
[22] = read-out: MIC M. abscessus 1513, 7H9 Broth
[23] = read-out: MIC M. abscessus 1513, MH Broth

SMILES	MIC [1, 20] [µg/mL]	MIC [1, 21] [µg/mL]	MIC [2, 22] [µg/mL]	MIC [2, 23] [µg/mL]	MIC [4] [µg/mL]	MIC ([5]; Mueller Hinton II) [µg/mL]	MIC [6] [µg/mL]	MIC [7] [µg/mL]	MIC [8] [µg/mL]	MIC [9] [µg/mL]	MIC [11] [µg/mL]	MIC [12] [µg/mL]	MIC [13] [µg/mL]	MIC [14] [µg/mL]	MIC P. aeruginosa PAO-1 [15]	MIC [15] [µg/mL]	MIC [16] [µg/mL]	MIC [10] [µg/mL]	MBC [19] [µg/mL]	further results
NCC[C@H](O)C(=O)N[C@@H]1C[C@H](N)[C@@H](O[C@H]2O[C@H](CN)[C@@H](O)[C@H](O)[C@H]2O)[C@H](O)[C@H]1O[C@H]1O[C@H](CO)[C@@H](O)[C@H](N)[C@H]1O [amikacin, reference compound]	8 (≈ 13.7 µM)	4 (≈ 6.83 µM)	> 64	> 64																MBC [1]: > 64 µg/mL; MBC [2]: > 64 µg/mL; log10 CFU liver counts on day 12 [3]: 4.03±0.62 log10 CFU; log10 CFU lung counts on day 12 [3]: 3.52±0.22 log10 CFU; log10 CFU spleen counts on day 12 [3]: 3.12±0.30 log10 CFU
Cc1cc(C)c2cc(C(=O)N[C@@H]3C[C@@H]4C[C@H]([C@H]3C)C4(C)C)[nH]c2c1 [Compound 31, N-((1R,2R,3R,5S)-2,6,6-trimethylbicyclo[3.1.1]heptan-3-yl)-4,6-dimethyl-1H-indole-2-carboxamide]	> 64	16 (≈ 49.3 µM)	> 64	> 64	0.125 (≈ 0.385 µM)	0.125 (≈ 0.385 µM)	0.125 (≈ 0.385 µM)	0.125 (≈ 0.385 µM)	0.125 (≈ 0.385 µM)	0.125 (≈ 0.385 µM)	1.25 to 2.5 (≈ 3.85 to 7.7 µM)	2 (≈ 6.16 µM)	2 (≈ 6.16 µM)	0.25 to 1 (≈ 0.77 to 3.08 µM)	inactive	> 160	> 160			Selectivity Index (TD50/MIC) M. abscessus DCI #21 [5]: >130; Selectivity Index (TD50/MIC) M. Massiliense CRM0019 [7]: >130; Selectivity Index (TD50/MIC) M. bolletii [8]: >130; Selectivity index (TD50/MIC) [9]: >130; Selectivity Index (TD50/MIC) M. tb H37Rv [10]: >830; TD50 [17]: >16.2 µg/mL; TMM build-up and mycolic acid transfer onto arabinogalactan and TDM [18]: concentration-dependent build-up of TMM
C[C@@H]1[C@H]2C[C@@H](C[C@H]1NC(=O)c1cc3ccccc3[nH]1)C2(C)C [Compound 16, N-((1R,2R,3R,5S)-2,6,6-trimethylbicyclo[3.1.1]heptan-3-yl)-1H-indole-2-carboxamide]	> 64	16 (≈ 54 µM)	> 64	> 64	0.12 (≈ 0.405 µM)	0.5 (≈ 1.69 µM)	0.06 (≈ 0.202 µM)	0.06 (≈ 0.202 µM)	0.12 (≈ 0.405 µM)	< 0.06	0.78 (≈ 2.63 µM)	8 (≈ 27 µM)	8 (≈ 27 µM)	0.5 to 1 (≈ 1.69 to 3.37 µM)	inactive	> 160	40 (≈ 135 µM)	0.05 (≈ 0.169 µM)	0.06 (≈ 0.202 µM)	Selectivity Index (TD50/MIC) M. abscessus DCI #21 [5]: 22.6; Selectivity Index (TD50/MIC) M. Massiliense CRM0019 [7]: 188; Selectivity Index (TD50/MIC) M. bolletii [8]: 92; Selectivity index (TD50/MIC) [9]: >188; Selectivity Index (TD50/MIC) M. tb H37Rv [10]: 226; TD50 [17]: 11.3 µg/mL; TMM build-up and mycolic acid transfer onto arabinogalactan and TDM [18]: concentration-dependent build-up of TMM
Cc1cc(C)c2cc(C(=O)NC3CCC(C)CC3)[nH]c2c1 (stereo not shown) [Compound 30, N-4-methylcyclohexyl-4,6-dimethyl-1H-indole-2-carboxamide]															inactive	> 160	> 160		0.03 (≈ 0.105 µM)	MIC M. abscessus ATCC 19977 [4]: ≤0.06 µg/mL; MIC M. abscessus DCI #21 ([5]; Mueller Hinton II): ≤0.06 µg/mL; MIC M. massiliense CIP 108297 ([6]; Mueller Hinton II): ≤0.06 µg/mL; MIC M. massiliense CRM 0019 ([7]; Mueller Hinton II): ≤0.06 µg/mL; MIC M. bolletii ATCC 14472 ([8]; Mueller Hinton II): ≤0.06 µg/mL; MIC M. chelonae ATCC 35752 ([9]; Mueller Hinton II): ≤0.06 µg/mL; MIC M. smeg. mc^2155 ([11]; 7H9-ADC-0.05% Tween 80): >20 µg/mL; MIC M. avium 104 [12]: >32 µg/mL; MIC M. avium Intracellulare 1956 [13]: >32 µg/mL; MIC M. xenopi WT [14]: 0.5 to 1 µg/mL
CC[C@H]1OC(=O)[C@H](C)[C@@H](O[C@H]2C[C@@](C)(OC)[C@@H](O)[C@H](C)O2)[C@H](C)[C@@H](O[C@@H]2O[C@H](C)C[C@H](N(C)C)[C@H]2O)[C@](C)(OC)C[C@@H](C)C(=O)[C@H](C)[C@@H](O)[C@]1(C)O [clarithromycin, reference compound]	16 (≈ 21.4 µM)	4 (≈ 5.35 µM)	> 64	> 64																MBC [1]: > 64 µg/mL; MBC [2]: > 64 µg/mL
Cc1cc(C)c2cc(C(=O)NC3CCCC3)[nH]c2c1 [Compound 28, N-cyclopentyl-4,6-dimethyl-1H-indole-2-carboxamide]					4 (≈ 15.6 µM)	4 (≈ 15.6 µM)	8 (≈ 31.2 µM)	8 (≈ 31.2 µM)	2 (≈ 7.8 µM)	2 (≈ 7.8 µM)	5 (≈ 19.5 µM)	> 32	> 32	8 to 16 (≈ 31.2 to 62.4 µM)				2.5 (≈ 9.75 µM)		
CCCCCCCNC(=O)c1cc2c(C)cc(C)cc2[nH]1 [Compound 32, N-heptyl-4,6-dimethyl-1H-indole-2-carboxamide]					> 32	> 32	> 32	> 32	32 (≈ 112 µM)	> 32	5 (≈ 17.5 µM)	> 32	> 32	> 32				> 5		
Cc1cc(C)c2cc(C(=O)NC3CCCCCC3)[nH]c2c1 [Compound 26, N-cycloheptyl-4,6-dimethyl-1H-indole-2-carboxamide]					≤ 0.06	≤ 0.06	≤ 0.06	≤ 0.06	≤ 0.06	≤ 0.06	0.625 (≈ 2.2 µM)	2 (≈ 7.03 µM)	4 (≈ 14.1 µM)	0.06 to 0.12 (≈ 0.211 to 0.422 µM)	inactive	> 160	> 160		0.015 (≈ 0.0527 µM)	

Reference: patent US10383848B2, “Indole-based therapeutics” (Creighton University, priority 2016, dated 2019)
